Measured values reported in patent publication US11849742B2, “Tasteful natural sweetener and flavor” (priority 2018, dated 2023).

Assays:
[1] = non-sugar natural sweeteners of Momordica grosvenori juice or extract; cited from earlier work
[2] = Kinetics of reaction: degradation of Phe and Reb-A, Gluc, Xyl, Suc at various pH-conditions (HPLC/MS); type: physicochemical
Method: Quantitative evaluation was performed using external standardization.
Kinetics of Reaction in dependence of pH-conditions

[3] = Assay to test reducing power (iron-III reduction); conditions: iron-III reduction and radical scavenging (FIG. 49, FIG. 50); amino acids and Reb-A, 100° C., pH 7.8
Method: 0.2 M Sodium phosphate buffer, pH=6.6; 500 mg Potassium ferric(III)cyanide/50 mL water, 10% Trichloroacetic acid; 20 mg Iron-III-Chloride/20 mL water; Calibration samples were prepared with Ascorbic acid in a concentration of 0-100 μg/mL 0.2 M Sodium phosphate buffer, pH=6.6 (freshly prepared); as negative control sample water was used.
Samples in aqueous solution were used as such or diluted in 0.2 M Sodium phosphate buffer, pH=6.6.
A 1 mL sample (or calibration standard) was mixed with 1 mL 0.2 M Sodium phosphate buffer, pH=6.6 and 1 ml Potassium ferricyanide solution. The sample was incubated and protected from light at 50° C. for 20 min.
To the solution was added 1 mL Trichloroacetic acid with thorough mixing.
A 1 mL of the mixture was diluted with 1 ml H2O and 0.2 ml Iron-III-chloride and reacted for 10 minutes; The absorbance was then determined at 700 nm against H2O.
10 mM of amino acid and/or 10 mM sugar were dissolved in 10 ml 0.1 mM KH2PO4-buffer, pH=7.8. […]
1 ml sample (or calibration standard) solution) was mixed with 0.2 M Sodium phosphate buffer (pH=6.6) and 1 ml Potassium ferric(III)cyanide solution in water (1% w/v) and incubated at 50° C. for 20 minutes. […] The sample was incubated for 10 minutes and absorbance read at 700 nm against a water control. […]
Quantification was performed by linear regression of calibration test results for ascorbic acid. […]

## OC[C@@H](O)[C@@H](O)[C@H](O)[C@H](O)CO [D-mannitol]
[1]
  natural sweetness, times of that of sugar: 0.55-0.65 times of that of sugar

## N[C@@H](CCC(=O)O)C(=O)O [Glu]
[2]; pH = 5.5
  % degradation: 3.65%
[2]; pH = 7.0
  % degradation: 4.6%
[2]; pH = 8.5
  % degradation: 7.62%

## C=C1C[C@@]23CC[C@H]4[C@@](C)(CCC[C@@]4(C)C(=O)O[C@@H]4O[C@H](CO)[C@@H](O)[C@H](O)[C@H]4O)[C@@H]2CC[C@]1(O[C@@H]1O[C@H](CO)[C@@H](O)[C@H](O[C@@H]2O[C@H](CO)[C@@H](O)[C@H](O)[C@H]2O)[C@H]1O[C@@H]1O[C@H](CO)[C@@H](O)[C@H](O)[C@H]1O)C3 [Reb-A, Rebaudioside A]
[3]
  anti-oxidant properties: substantial anti-oxidant properties

## C[C@H](CC[C@@H](O[C@@H]1O[C@H](CO)[C@@H](O)[C@H](O)[C@H]1O[C@@H]1O[C@H](CO)[C@@H](O)[C@H](O)[C@H]1O)C(C)(C)O)[C@H]1CC[C@@]2(C)[C@H]3CC=C4[C@@H](CC[C@H](O[C@@H]5O[C@H](CO[C@@H]6O[C@H](CO)[C@@H](O)[C@H](O)[C@H]6O)[C@@H](O)[C@H](O)[C@H]5O)C4(C)C)[C@]3(C)[C@H](O)C[C@]12C [mogroside IV]
[1]
  natural sweetness, times of that of sugar: 126 times of that of sugar

## C[C@H](CC[C@@H](O[C@@H]1O[C@H](CO[C@@H]2O[C@H](CO)[C@@H](O)[C@H](O)[C@H]2O)[C@@H](O)[C@H](O)[C@H]1O[C@@H]1O[C@H](CO)[C@@H](O)[C@H](O)[C@H]1O)C(C)(C)O)[C@H]1CC[C@@]2(C)[C@@H]3CC=C4[C@@H](CC[C@H](O[C@@H]5O[C@H](CO[C@@H]6O[C@H](CO)[C@@H](O)[C@H](O)[C@H]6O)[C@@H](O)[C@H](O)[C@H]5O)C4(C)C)[C@]3(C)[C@H](O)C[C@]12C [mogroside V]
[1]
  natural sweetness, times of that of sugar: 256-344 times of that of sugar
